Our source for the IC50, inhibition and Km values is PMC4708625 (Free Radical Biology & Medicine, 2016).

By IC50 is commonly meant the concentration needed to halve the response being measured. As a reminder, the inhibition is the relative decrease from the control value, in per cent. The Km is the concentration of substrate that gives half-maximal velocity.

Series [1] concerns the target T1, Carboxylesterase 1 isoform b (Ces1b) (Homo sapiens, UniProt P23141).
T1 construct: gene CES1
T1 sequence (P23141 18-567): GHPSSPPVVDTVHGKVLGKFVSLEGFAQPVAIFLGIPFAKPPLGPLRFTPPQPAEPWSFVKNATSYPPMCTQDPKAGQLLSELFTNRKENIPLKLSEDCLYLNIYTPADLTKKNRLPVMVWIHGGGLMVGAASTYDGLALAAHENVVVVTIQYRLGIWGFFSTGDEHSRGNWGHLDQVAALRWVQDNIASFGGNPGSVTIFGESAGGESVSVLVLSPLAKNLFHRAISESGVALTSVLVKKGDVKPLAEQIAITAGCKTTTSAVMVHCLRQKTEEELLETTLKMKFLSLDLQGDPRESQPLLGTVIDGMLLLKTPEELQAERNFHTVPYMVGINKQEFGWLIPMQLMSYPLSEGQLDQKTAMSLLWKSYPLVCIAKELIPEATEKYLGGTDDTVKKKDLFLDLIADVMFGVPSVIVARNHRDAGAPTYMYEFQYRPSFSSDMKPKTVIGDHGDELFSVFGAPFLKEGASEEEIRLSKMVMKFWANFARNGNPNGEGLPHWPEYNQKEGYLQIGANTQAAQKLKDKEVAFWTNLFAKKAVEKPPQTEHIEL
In words: inhibition of Amplex Red to resorufin conversion by recombinant Ces1b (fluorescence). In kind it is biochemical.

Series [2] has as its target T1, Carboxylesterase 1 isoform b (Ces1b). Briefly: biochemical. As to conditions: read-out: % inhibition at 100 μM.
Series [3] shares this target. In words: dose response of Amplex Red to resorufin conversion by recombinant Ces1b (fluorescence). The class given is biochemical.
Substrate in the series “purified protein”: CC(=O)N1c2ccc(O)cc2Oc2cc(O)ccc21
Briefly: purified protein. The note with it: docking: carbonyl carbon near Ser221, carbonyl oxygen in oxyanion hole of Gly142 and Gly143.

For the molecule `O=[N+]([O-])c1ccc(OP(=O)(O)Oc2ccc([N+](=O)[O-])cc2)cc1` [BNPP, bis(4-nitrophenyl)phosphate], the IC50 in series [1] was roughly 150 nM.
Consider `CN(C)C(=O)C(CCN1CCC(O)(c2ccc(Cl)cc2)CC1)(c1ccccc1)c1ccccc1` [LPM, Loperamide], for which the inhibition at 100 µM in series [2] was roughly 50%.
For the molecule `O=S(=O)(F)Cc1ccccc1` [PMSF, Phenylmethyl sulfonyl fluoride], the IC50 in series [3] is roughly 5000 nM.

B1: Carboxylesterase 1 isoform b (Ces1b) (Homo sapiens) (protein)
chain: GHPSSPPVVDTVHGKVLGKFVSLEGFAQPVAIFLGIPFAKPPLGPLRFTPPQPAEPWSFVKNATSYPPMCTQDPKAGQLLSELFTNRKENIPLKLSEDCLYLNIYTPADLTKKNRLPVMVWIHGGGLMVGAASTYDGLALAAHENVVVVTIQYRLGIWGFFSTGDEHSRGNWGHLDQVAALRWVQDNIASFGGNPGSVTIFGESAGGESVSVLVLSPLAKNLFHRAISESGVALTSVLVKKGDVKPLAEQIAITAGCKTTTSAVMVHCLRQKTEEELLETTLKMKFLSLDLQGDPRESQPLLGTVIDGMLLLKTPEELQAERNFHTVPYMVGINKQEFGWLIPMQLMSYPLSEGQLDQKTAMSLLWKSYPLVCIAKELIPEATEKYLGGTDDTVKKKDLFLDLIADVMFGVPSVIVARNHRDAGAPTYMYEFQYRPSFSSDMKPKTVIGDHGDELFSVFGAPFLKEGASEEEIRLSKMVMKFWANFARNGNPNGEGLPHWPEYNQKEGYLQIGANTQAAQKLKDKEVAFWTNLFAKKAVEKPPQTEHIEL
Consider B1, for which, in the series “purified protein”, the Km was determined as 55 ± 12 µM.
